In brackets after ≈: the same amount, converted by molar mass. *1 amine or outer side, *2 acyl side, *3 side chain or, on linkers, in order; H or OH if unused. Where a SMILES comes first, the peptide text is derived from it. [ ]: non-standard residue; d: D form. The star is where a group is joined. X1 = O=C(C[C@H](N[*:1])c1ccc(O)cc1)[*:2]; dVal(3-OH) = CC(C)(O)[C@@H](N)C(=O)O; X2 = CCC(C)=C(N[*:1])C(=O)[*:2]; Isovaleryl = CC(C)CC(=O)*; Agmatine = N=C(N)NCCCCN*; Isobutyryl = CC(C)C(=O)*; NMeA = CN[C@@H](C)C(=O)O; ΔVal = CC(C)=C(N)C(=O)O

One series has as its system eukaryotic translation. The settings on record: cited from earlier work. The text has this:
Microorganisms continue to be a major source for innovative antibiotics. Ubiquitously found but understudied soil-dwelling predatory myxobacteria have proven to be a rich source of bioactive compounds.[3]−[5] […] The myxovalargin structure was described in 1987 as comprising some congeners with Myxovalargin A (MyxA) ...

The test system of another series is M. tuberculosis. The settings on record: mouse, in vivo.
The next series concerns Pasteurella multocida. The settings on record: 10 mg/kg enrofloxacin, s.c.
Series [1] relates to Staphylococcus aureus DSM-346. To be noted: DSM-346, 24 h.
Series [2] deals with Enterococcus faecium DSM-20477. To be noted: DSM-20477, 24 h.
Series [3] deals with E. coli ribosomes bearing the A2503G mutation. The class given is biochemical.
Series [4] deals with Pseudomonas aeruginosa PAO1. The settings on record: PAO1, 24 h.
For series [5], the system named is Mycobacterium smegmatis mc2155. To be noted: mc2155, 48 h.
Series [6] has as its system wildtype E. coli ribosomes. The class given is biochemical. To be noted: purified wildtype 70S ribosomes, increasing concentrations.
Series [7] deals with 23S rRNA of the large ribosomal subunit. In kind it is binding, E. coli. The settings on record: 10 μM or 100 μM.
For series [8], the system named is Escherichia coli K12 ΔtolC. The settings on record: K12, 24 h.
The subject of series [9] is Micrococcus luteus DSM-1790. The settings on record: DSM-1790, 24 h.
In series [10] the test system is Escherichia coli DSM-1116. To be noted: DSM-1116, 24 h.
The subject of a further series is ribosome. Kind of series: Toeprinting assay on ErmBL mRNA. To be noted: 10–100 μM, absence of isoleucine. In kind it is biochemical, E. coli. The protocol:
To address the mechanism of action of myxovalargins, we employed the toeprinting assay, which uses reverse transcription to monitor the position of ribosomes on a mRNA (Figure 6a).[24] The assay was performed in the absence of isoleucine (Ile) such that in the absence of antibiotics, ribosomes can initiate at the AUG start codon but become stuck after translating 15 amino acids when the Ile “catch-codon” enters the A-site (Figure 6a,b). […] We also performed toeprinting reactions in the presence of 5 μM erythromycin (Ery), which allows ribosomes to translate the first 10 amino acids of the ErmBL mRNA but then stalls them with GAU (Asp) codon in the P-site (Figure 6a,b), as reported previously.[25]−[27] After pre-incubation with Ery, we titrated reactions with increasing MyxB, which also led to a loss of the Ery-dependent ErmBL stalling band and appearance of ribosomes positioned on the start codon (Figure 6b), consistent with the overlap in ribosomal binding sites of MyxB and Ery (Figure 6c,d). […] Indeed, in the MyxB-SRC, we observed the simultaneous presence of P-site tRNA and MyxB (Figure 5d) but no ribosomes with additional presence of A-site tRNA (Figure S7-5). […]

Series [11] deals with Chromobacterium violaceum DSM-30191. To be noted: DSM-30191, 24 h.
For series [12], the system named is Pseudomonas aeruginosa PA14. To be noted: PA14, 24 h.

Turning to `CCC(C)=C(NC(=O)[C@H](NC(=O)[C@@H](NC(=O)[C@@H](CCCNC(=N)N)NC(=O)C(NC(=O)[C@H](NC(=O)C[C@H](NC(=O)[C@H](NC(=O)[C@H](NC(=O)[C@H](C)N(C)C(=O)[C@H](C)NC(=O)C(NC(=O)CC(C)C)=C(C)C)C(C)C)C(C)C)c1ccc(O)cc1)C(C)C)=C(C)C)C(C)C)C(C)C)C(=O)N[C@H](C)C(=O)N[C@@H](C(=O)NCCCCNC(=N)N)C(C)(C)O` [Myxovalargin] (Isovaleryl-[ΔVal]A[NMeA][dV][dV][X1][dV][ΔVal][dR]V[dV][X2][dA][dVal(3-OH)]-Agmatine), the “inhibition of eukaryotic translation” value with eukaryotic translation is recorded as “did not inhibit eukaryotic translation”. The “toxicity in infected mice” value in the series with M. tuberculosis is listed as “moribund within 1 week”. In the series on M. tuberculosis H37Rv, the “MIC (antitubercular activity)” value was determined as 0.2 µg/mL (≈ 0.119 µM).

On to `CCN1CCN(c2cc3c(cc2F)c(=O)c(C(=O)O)cn3C2CC2)CC1` [enrofloxacin, reference compound], for which, in the series with Pasteurella multocida, the “Mean bacteria in liver” value is reported as 0 CFU/g and the “Survival rate 48 hpi” value is on record as 100%.

One may read the MIC as the lowest concentration that inhibits growth of the organism. Low values mean a more susceptible organism, high ones a less susceptible organism. As for `CCC(C)=C(NC(=O)[C@H](NC(=O)[C@@H](NC(=O)[C@@H](CCCNC(=N)N)NC(=O)C(NC(=O)[C@H](NC(=O)C[C@H](NC(=O)[C@H](NC(=O)[C@H](NC(=O)[C@H](C)N(C)C(=O)[C@H](C)NC(=O)C(NC(=O)C(C)C)=C(C)C)C(C)C)C(C)C)c1ccc(O)cc1)C(C)C)=C(C)C)C(C)C)C(C)C)C(=O)N[C@H](C)C(=O)N[C@@H](C(=O)NCCCCNC(=N)N)C(C)(C)O` [MyxB] (Isobutyryl-[ΔVal]A[NMeA][dV][dV][X1][dV][ΔVal][dR]V[dV][X2][dA][dVal(3-OH)]-Agmatine), the MIC in series [1] stood at 8 µg/mL (≈ 4.81 µM); in [2] it was 1 µg/mL (≈ 0.601 µM); in [4], 64 µg/mL (≈ 38.5 µM); in series [5], 8 µg/mL (≈ 4.81 µM); in [8], 32 µg/mL (≈ 19.2 µM); in series [9], 2 µg/mL (≈ 1.2 µM). The MIC in series [10] stood at 64 µg/mL (≈ 38.5 µM); in series [11], 32 µg/mL (≈ 19.2 µM); in series [12], 32 µg/mL (≈ 19.2 µM). Moreover, the “in vitro translation of firefly luciferase reporter” value in series [3] was “completely resistant”; in series [6] it was “inhibited by MyxB in a dose-dependent fashion”. Moreover, in [7], the “protection from dimethyl sulfate modification” value is given as “protects multiple 23S rRNA nucleotides”. In addition, the “position of arrested ribosomes (toeprint)” value in the series with ribosome is reported as “ribosomes positioned with the AUG start codon in the P-site”.

In the case of `CC(C)=C(NC(=O)C(C)C)C(=O)N[C@@H](C)C(=O)N(C)[C@@H](C)C(=O)N[C@@H](C(=O)N[C@@H](C(=O)N[C@@H](CC(=O)N[C@@H](C(=O)NC(C(=O)N[C@H](CCCNC(=N)N)C(=O)N[C@H](C(=O)N[C@@H](C(=O)NC(C(=O)N[C@H](C)C(=O)N[C@@H](C(=O)NCCCCNC(=N)N)C(C)(C)O)=C(C)C)C(C)C)C(C)C)=C(C)C)C(C)C)c1ccc(O)cc1)C(C)C)C(C)C` [Myx C] (Isobutyryl-[ΔVal]A[NMeA][dV][dV][X1][dV][ΔVal][dR]V[dV][ΔVal][dA][dVal(3-OH)]-Agmatine), the MIC in [1] is reported as 2 µg/mL (≈ 1.21 µM); in [2], 1 µg/mL (≈ 0.606 µM); in [4], 64 µg/mL (≈ 38.8 µM); in series [5] it was 4 µg/mL (≈ 2.43 µM); in [8], 32 µg/mL (≈ 19.4 µM); in [9] it was 2 µg/mL (≈ 1.21 µM). The MIC in [10] worked out at 64 µg/mL (≈ 38.8 µM); in series [11], 8 µg/mL (≈ 4.85 µM); in series [12], 32 µg/mL (≈ 19.4 µM).

The record behind these values is article PMC9853869, “The Myxobacterial Antibiotic Myxovalargin: Biosynthesis, Structural Revision, Total Synthesis, and Molecular Characterization of Ribosomal Inhibition” (Journal of the American Chemical Society, 2023).
